These results are taken from ChEMBL document CHEMBL1126439, “Synthesis, biochemical activity and behavioral effects of a series of 1,4,5,6-tetrahydropyrimidines as novel ligands for M1 receptors” (Bioorg Med Chem Lett, 1992).

The species entered for assay [1] is Rattus norvegicus. In words: Ability to stimulate PI (phospho inositol) metabolism in rat cerebral cortex at 100 uM concentration. The class given is functional.
For assay [2], the target named is Muscarinic acetylcholine receptor.
Description: Inhibition of [3H](R)-QNB binding to muscarinic receptor in rat brain membranes
The species named for assay [3] is Rattus norvegicus. Description: Compound was evaluated for its ability to stimulate PI (phospho inositol) metabolism in the rat hippocampal slices. In kind it is functional, Hippocampus.
The species entered for assay [4] is Rattus norvegicus. Description: cells. As to conditions: Hippocampus.
Description: Inhibition of PI (phospho inositol) response in rat hippocampus by the selective antagonist AF-DX 116 in the presence of 50 uM concentration of the compound
The species named for assay [5] is Rattus norvegicus. Description: cells. The conditions noted are these: Hippocampus. This is another data set of the same source.
Description: Inhibition of PI (phospho inositol) response in rat hippocampus by the selective antagonist pirenzepine in the presence of 50 uM concentration of the compound
The species named for assay [6] is Rattus norvegicus. Description: Compound was evaluated for its ability to stimulate PI (phospho inositol) metabolism in the rat hippocampal slices, the 50% effective concentration was reported. In kind it is functional. The conditions noted are these: Hippocampus.
Assay [7] is filed under the species Rattus norvegicus. Description: tissue or blood. As to conditions: Hippocampus.
Description: Effective concentration to stimulate PI (phospho inositol) metabolism in the rat hippocampal slices

Usually IC50 stands for the midpoint of a concentration-inhibition curve. With `CC(=O)OC1CN=CNC1.Cl` (centres undefined), the Activity in the assay filed under Rattus norvegicus [1] stood at 45. In addition, the IC50 in assay [2] was determined as 32000 nM. In the assay filed under Rattus norvegicus [3], this molecule gave a Stimulation of 70%.
`C#CCOC(=O)C1CN=CNC1.Cl` (centres undefined) yielded an Activity in the assay listed under Rattus norvegicus [1] of 230.
What is called EC50 is the concentration that produces a half-maximal response. Read a low EC50 as a more potent agent. `COC(=O)C1CN=CNC1.Cl` (centres undefined) had an Activity in the assay listed under Rattus norvegicus [1] of 130. In addition, the IC50 in the assay filed under Rattus norvegicus [4] stood at 750 nM; in the assay listed under Rattus norvegicus [5], 44 nM. Also, the Stimulation in the assay filed under Rattus norvegicus [3] worked out at 240%. This molecule also displayed a half-maximal effective concentration (EC50) in the assay listed under Rattus norvegicus [6] of 55000 nM.
On to `CCCOC(=O)C1CN=CNC1.Cl` (centres undefined), for which the Activity in the assay listed under Rattus norvegicus [1] turned out to be 7.1.
`C[N+](C)(C)CCOC(N)=O.[Cl-]` [CARBACHOL] gave an Activity in the assay listed under Rattus norvegicus [1] of 580.
For `CC(=O)OC1CN2CCC1CC2` (centres undefined) [ACECLIDINE], the EC50 in the assay filed under Rattus norvegicus [7] came out at 21000 nM. Moreover, the half-inhibitory concentration (IC50) in the assay listed under Rattus norvegicus [4] was found to be 280 nM; in the assay filed under Rattus norvegicus [5], 120 nM. The same molecule displayed a Stimulation in the assay filed under Rattus norvegicus [3] of 300%.
On to `Cl.O=C(OCc1ccccc1)C1CN=CNC1` (centres undefined), for which, in the assay filed under Rattus norvegicus [1], the Activity is recorded as 3.5. This molecule also displayed a 50% inhibitory concentration (IC50) in assay [2] of 2600 nM.
Molecule `CC(C)OC(=O)C1CN=CNC1.Cl` (centres undefined) displayed an Activity in the assay filed under Rattus norvegicus [1] of 7.2.
`CCOC(=O)C1CN=CNC1.Cl` (centres undefined) came in with an Activity in the assay filed under Rattus norvegicus [1] of 150.
